Results on 15 compounds are retold here after ChEMBL document CHEMBL1909046, “DrugMatrix in vitro pharmacology data”.

Series [1] in a line: DRUGMATRIX: Purinergic P2X radioligand binding (ligand: [3H] alpha, beta-Methylene-ATP). It is filed as cell membranes, Oryctolagus cuniculus, New Zealand albino, Urinary bladder, Membrane. The note with it: Not Active = under 50% inhibition at 10 µM.
For the next series, the target named is T1, Cytochrome P450 2A6 (Homo sapiens, UniProt P11509). Further: in other assays of this panel Not Active means under 50% inhibition at 10 µM.
T1 sequence (P11509 whole entry): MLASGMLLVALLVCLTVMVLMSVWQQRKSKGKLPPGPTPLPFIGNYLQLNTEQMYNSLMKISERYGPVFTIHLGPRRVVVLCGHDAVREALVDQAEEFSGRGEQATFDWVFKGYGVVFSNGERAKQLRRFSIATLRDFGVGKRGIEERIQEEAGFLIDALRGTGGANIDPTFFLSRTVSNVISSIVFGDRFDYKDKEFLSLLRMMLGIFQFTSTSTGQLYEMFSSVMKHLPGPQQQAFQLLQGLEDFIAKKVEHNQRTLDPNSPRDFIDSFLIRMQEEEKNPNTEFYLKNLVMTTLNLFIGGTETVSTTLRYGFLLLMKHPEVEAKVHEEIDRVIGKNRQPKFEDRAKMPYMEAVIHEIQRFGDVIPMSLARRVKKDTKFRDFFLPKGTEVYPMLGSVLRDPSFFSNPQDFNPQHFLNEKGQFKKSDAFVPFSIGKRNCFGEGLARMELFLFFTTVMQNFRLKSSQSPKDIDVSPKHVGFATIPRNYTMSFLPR
The conditions noted are these: bti-tn-5b1-4.

A short description of series [2]: DRUGMATRIX: Calcium Channel Type L, Phenylalkylamine radioligand binding (ligand: [3H] (-)-Desmethoxyverapamil (D-888)). It is filed as cell membranes, Rattus norvegicus, Wistar, Brain, Membrane. The note with it: Not Active = under 50% inhibition at 10 µM.
Series [3] can be described thus: DRUGMATRIX: Nicotinic Acetylcholine radioligand binding (ligand: [125I] Epibatidine). It is filed as cell membranes, Membrane. The note with it: imr-32; Not Active = under 50% inhibition at 10 µM.
Series [4] addresses 5-hydroxytryptamine receptor 4 (Cavia porcellus, UniProt O70528). It is filed as cell membranes, Dunkin-Hartley, Striatum, Membrane.
For series [5], the target named is T2, Alpha-2A adrenergic receptor (Homo sapiens, UniProt P08913). Further: in other assays of this panel Not Active means under 50% inhibition at 10 µM.
T2 sequence (P08913 whole entry): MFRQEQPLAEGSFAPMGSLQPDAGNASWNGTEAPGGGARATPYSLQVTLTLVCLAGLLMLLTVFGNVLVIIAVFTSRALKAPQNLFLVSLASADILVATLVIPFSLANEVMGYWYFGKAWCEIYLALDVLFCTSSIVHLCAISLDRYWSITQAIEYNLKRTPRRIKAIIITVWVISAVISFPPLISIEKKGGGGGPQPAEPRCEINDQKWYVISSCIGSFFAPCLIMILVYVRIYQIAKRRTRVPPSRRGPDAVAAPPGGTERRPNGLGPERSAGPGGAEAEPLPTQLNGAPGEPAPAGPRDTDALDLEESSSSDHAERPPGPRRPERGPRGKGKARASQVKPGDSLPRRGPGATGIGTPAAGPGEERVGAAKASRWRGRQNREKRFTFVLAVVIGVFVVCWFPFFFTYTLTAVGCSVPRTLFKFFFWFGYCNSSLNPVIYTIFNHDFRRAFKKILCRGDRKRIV
It is filed as cell membranes, Sf9, Membrane.

Series [6] can be described thus: DRUGMATRIX: Calcium Channel Type L, Benzothiazepine radioligand binding (ligand: [3H] Diltiazem). It is filed as cell membranes, Rattus norvegicus, Wistar, Brain, Membrane. The note with it: Not Active = under 50% inhibition at 10 µM.

5-hydroxytryptamine receptor 4, sequence (O70528 whole entry): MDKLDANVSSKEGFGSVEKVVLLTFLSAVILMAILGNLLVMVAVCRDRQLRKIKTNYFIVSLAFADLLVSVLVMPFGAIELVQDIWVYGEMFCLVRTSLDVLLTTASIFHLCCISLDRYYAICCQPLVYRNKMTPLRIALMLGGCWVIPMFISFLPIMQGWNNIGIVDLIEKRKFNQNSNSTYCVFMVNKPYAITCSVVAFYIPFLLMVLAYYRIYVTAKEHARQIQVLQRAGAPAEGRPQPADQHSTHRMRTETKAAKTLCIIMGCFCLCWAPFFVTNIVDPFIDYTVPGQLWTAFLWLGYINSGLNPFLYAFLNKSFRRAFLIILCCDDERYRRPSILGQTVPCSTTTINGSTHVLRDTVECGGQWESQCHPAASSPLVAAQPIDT

In general, IC50 refers to the concentration that inhibits the measured activity by half. In general, Ki refers to the equilibrium dissociation constant of an inhibitor or competing ligand from its target. With `CN(C)CCC=C1c2ccccc2CCc2ccccc21` [AMITRIPTYLINE], the IC50 result in series [1] was “Not Active”; against Cytochrome P450 2A6 it was “Not Active”; in series [2] (read-out: IC50), 840 nM; in series [3], “Not Active”; in series [4] it was “Not Active”; in series [5] (read-out: IC50), 351 nM. Moreover, the IC50 in series [6] (read-out: IC50) stood at 1990 nM. Also, the Ki entry in series [1] was “Not Active”; on Cytochrome P450 2A6 it was “Not Active”; in series [2] (read-out: Ki) it was 816 nM; in series [3] it was “Not Active”; in series [5] (read-out: Ki), 132 nM; in series [6] (read-out: Ki), 1770 nM.

As for `CC(=O)Oc1ccccc1C(=O)O` [ASPIRIN], the 50% inhibitory concentration (IC50) result (in series [1]; against Cytochrome P450 2A6; in series [2]; in series [3]; in series [4]; in series [5] (sf9)) was “Not Active” in each case. Moreover, in series [6], the IC50 result was “Not Active”. Further, the Ki result (in series [1]; at Cytochrome P450 2A6; in series [2]; in series [3]; in series [6]) was “Not Active” in each case.

`CC(C)c1c(C(=O)Nc2ccccc2)c(-c2ccccc2)c(-c2ccc(F)cc2)n1CC[C@@H](O)C[C@@H](O)CC(=O)O` [ATORVASTATIN]: the 50% inhibitory concentration (IC50) result (in series [1]; against Cytochrome P450 2A6; in series [2]; in series [3]; in series [4]; in series [5] (sf9)) was “Not Active” each time. Further, the IC50 entry in series [6] is “Not Active”. For the same compound, the Ki entry (in series [1]; at Cytochrome P450 2A6; in series [2]; in series [3]; in series [6]) was “Not Active” each time.

Consider `CC(=O)OC[C@H]1O[C@@H](n2ncc(=O)[nH]c2=O)[C@H](OC(C)=O)[C@@H]1OC(C)=O` [AZARIBINE], for which the concentration for half-maximal inhibition (IC50) result (in series [1]; on Cytochrome P450 2A6; in series [2]; in series [3]; in series [4]; in series [5] (sf9)) was “Not Active” throughout. Also, the IC50 result in series [6] is “Not Active”. Besides, the Ki result (in series [1]; on Cytochrome P450 2A6; in series [2]; in series [3]; in series [6]) was “Not Active” each time.

In the case of `C[C@H]1[C@H](NC(=O)/C(=N\OC(C)(C)C(=O)O)c2csc(N)n2)C(=O)N1S(=O)(=O)O` [AZTREONAM], the IC50 entry (in series [1]; against Cytochrome P450 2A6; in series [2]; in series [3]; in series [4]; in series [5] (sf9)) was “Not Active” throughout. The IC50 entry in series [6] is on record as “Not Active”. Moreover, the Ki result (in series [1]; on Cytochrome P450 2A6; in series [2]; in series [3]; in series [6]) was “Not Active” in each case.

Regarding `O=C(O)CCNC(=O)c1ccc(/N=N/c2ccc(O)c(C(=O)O)c2)cc1` [BALSALAZIDE], the concentration for half-maximal inhibition (IC50) entry (in series [1]; at Cytochrome P450 2A6; in series [2]; in series [3]; in series [4]; in series [5] (sf9)) was “Not Active” each time. Also, in series [6], the IC50 result is recorded as “Not Active”. Besides, the Ki entry (in series [1]; at Cytochrome P450 2A6; in series [2]; in series [3]; in series [6]) was “Not Active” each time.

For the compound `COc1cc(OC)c(C(=O)CCCN2CCCC2)c(OC)c1` [BUFLOMEDIL], the half-maximal inhibitory concentration (IC50) result (in series [1]; against Cytochrome P450 2A6; in series [2]; in series [3]; in series [4]; in series [5] (sf9)) was “Not Active” throughout. Moreover, in series [6], the IC50 result is recorded as “Not Active”. The Ki result (in series [1]; on Cytochrome P450 2A6; in series [2]; in series [3]; in series [6]) was “Not Active” in each case.

`Cn1c(=O)c2c(ncn2C)n(C)c1=O` [CAFFEINE]: the IC50 result (in series [1]; on Cytochrome P450 2A6; in series [2]; in series [3]; in series [4]; in series [5] (sf9)) was “Not Active” in each case. Besides, the IC50 entry in series [6] is recorded as “Not Active”. Moreover, the inhibition constant (Ki) result (in series [1]; at Cytochrome P450 2A6; in series [2]; in series [3]; in series [6]) was “Not Active” throughout.

As for `ClC(Cl)(Cl)Cl` [CARBON TETRACHLORIDE], the IC50 result (in series [1]; on Cytochrome P450 2A6; in series [2]; in series [3]; in series [4]; in series [5] (sf9)) was “Not Active” throughout. Further, the IC50 result in series [6] is given as “Not Active”. The inhibition constant (Ki) entry (in series [1]; at Cytochrome P450 2A6; in series [2]; in series [3]; in series [6]) was “Not Active” each time.

As for `CO/N=C(\C(=O)N[C@@H]1C(=O)N2C(C(=O)O)=C(COC(C)=O)CS[C@H]12)c1csc(N)n1` [CEFOTAXIME], the IC50 result (in series [1]; at Cytochrome P450 2A6; in series [2]; in series [3]; in series [4]; in series [5] (sf9)) was “Not Active” each time. Also, the IC50 entry in series [6] is reported as “Not Active”. Besides, the inhibitory constant (Ki) result (in series [1]; on Cytochrome P450 2A6; in series [2]; in series [3]; in series [6]) was “Not Active” each time.

On to `CNC1=Nc2ccc(Cl)cc2C(c2ccccc2)=[N+]([O-])C1` [CHLORDIAZEPOXIDE], for which the IC50 result (in series [1]; against Cytochrome P450 2A6; in series [2]; in series [3]; in series [4]; in series [5] (sf9)) was “Not Active” each time. Further, in series [6], the IC50 entry was “Not Active”. Moreover, the inhibition constant Ki result (in series [1]; at Cytochrome P450 2A6; in series [2]; in series [3]; in series [6]) was “Not Active” each time.

For `Cc1cc(O)cc(C)c1Cl` [CHLOROXYLENOL], the IC50 entry (in series [1]; against Cytochrome P450 2A6; in series [2]; in series [3]; in series [4]; in series [5] (sf9)) was “Not Active” in each case. Moreover, the IC50 entry in series [6] is on record as “Not Active”. Further, the Ki entry (in series [1]; on Cytochrome P450 2A6; in series [2]; in series [3]; in series [6]) was “Not Active” each time.

Take `CCCNC(=O)NS(=O)(=O)c1ccc(Cl)cc1` [CHLORPROPAMIDE]: the IC50 result (in series [1]; against Cytochrome P450 2A6; in series [2]; in series [3]; in series [4]; in series [5] (sf9)) was “Not Active” each time. Besides, in series [6], the half-inhibitory concentration (IC50) result was “Not Active”. In addition, the inhibition constant (Ki) entry (in series [1]; at Cytochrome P450 2A6; in series [2]; in series [3]; in series [6]) was “Not Active” throughout.

Take `NS(=O)(=O)c1cc(C2(O)NC(=O)c3ccccc32)ccc1Cl` (stereo unspecified) [CHLORTHALIDONE]: the concentration for half-maximal inhibition (IC50) result (in series [1]; on Cytochrome P450 2A6; in series [2]; in series [3]; in series [4]; in series [5] (sf9)) was “Not Active” in each case. The IC50 entry in series [6] is “Not Active”. In addition, the inhibition constant (Ki) result (in series [1]; on Cytochrome P450 2A6; in series [2]; in series [3]; in series [6]) was “Not Active” throughout.

For `O=C(O)CC(O)(CC(=O)O)C(=O)O` [CITRIC ACID], the half-inhibitory concentration (IC50) result (in series [1]; against Cytochrome P450 2A6; in series [2]; in series [3]; in series [4]; in series [5] (sf9)) was “Not Active” each time. For the same compound, the half-inhibitory concentration (IC50) result in series [6] is “Not Active”. For the same compound, the inhibition constant Ki entry (in series [1]; on Cytochrome P450 2A6; in series [2]; in series [3]; in series [6]) was “Not Active” each time.
